The source of these data is PubChem BioAssay (NCI).

Common to all, as to experiment: NCI tumour cell line growth inhibition, 48 h
Experiment [1] relates to A498 renal.
In experiment [2] the test system is A549 NSCLC.
Experiment [3] has as its system BT-549 breast.
Experiment [4] deals with DU-145 prostate.
Experiment [5] has as its system HOP-62 NSCLC.
For experiment [6], the system named is IGROV1 ovarian.
Experiment [7] has as its system K-562 leukemia.
The test system of experiment [8] is LOX IMVI melanoma.
The subject of experiment [9] is OVCAR-5 ovarian.
For experiment [10], the system named is SN12C renal.
Experiment [11] concerns SNB-19 CNS.
Experiment [12] has as its system U251 CNS.
Experiment [13] has as its system COLO 205 colon.

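Interpolation was linear, between the two tested concentrations surrounding the appropriate level; five concentrations were tested over 48 hours in 96-well plates. TGI is the concentration that stops growth completely.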 Bounds are passed on as bounds.

`Cc1ccc(S(=O)(=O)C2=C(C(C)C)N=NC2(C)C)cc1`: the TGI in [1], in experiment [2], in experiment [3], in [4], in experiment [5] and in [6] was greater than 100 µM throughout. Besides, the TGI in [7], in experiment [8], in [9], in experiment [10], in experiment [11] and in [12] was greater than 100 µM each time.

`COc1ccc2nc(-c3ccccc3)c(=O)[nH]c2c1`: the TGI in experiment [1], in [2], in [3], in experiment [13], in [4] and in [5] was greater than 100 µM each time. The TGI in experiment [6], in experiment [7], in experiment [8], in experiment [9], in experiment [10] and in experiment [11] was greater than 100 µM each time.

With `C/C=C\C(CC(=O)NCC(=O)c1c[nH]c2ccccc12)CC(=O)OC` (stereo unspecified), the TGI in experiment [1], in experiment [2], in experiment [3], in experiment [13], in experiment [4] and in experiment [5] was greater than 100 µM in each case. For the same compound, the TGI in experiment [6], in experiment [7], in experiment [9], in experiment [11] and in [12] was greater than 100 µM each time.

On to `CCOC(=O)C(NC(=O)c1ccccc1)(N1CCN(c2cc3c(cc2F)c(=O)c(C(=O)O)cn3C2CC2)CC1)C(F)(F)F` (stereo unspecified), for which the TGI in [1] was 72 µM; in [2], greater than 100 µM; in experiment [3], 50.9 µM; in experiment [13], 30.8 µM; in experiment [4] it was greater than 100 µM; in experiment [5], greater than 100 µM. Also, the TGI is 92.5 µM in experiment [6]; 46.6 µM in experiment [7]; 40.5 µM in experiment [9]; 79.3 µM in experiment [10]; greater than 100 µM in experiment [11]; greater than 100 µM in experiment [12].

Take `O=C1C=C(Nc2ccc(S(=O)(=O)Nc3nccs3)cc2)c2ccccc2C1=O`: the TGI was greater than 100 µM in [1]; greater than 100 µM in experiment [2]; 40.8 µM in [3]; 29.7 µM in experiment [5]; greater than 100 µM in [6]; greater than 100 µM in experiment [7]. Moreover, the TGI in experiment [8] was 48.6 µM; in experiment [9] it was 43.9 µM; in [10], 47.2 µM; in [11], 86.3 µM; in [12], 48 µM.

As for `CC(=O)c1c(N=[N+]=[N-])c2cccc3c2n(c1=O)CCC3`, the TGI was 55.6 µM in [1]; greater than 100 µM in experiment [2]; 39.8 µM in [3]; 44.6 µM in experiment [13]; 42.3 µM in experiment [5]; 42.8 µM in experiment [6]. For the same compound, the TGI in experiment [7] is greater than 100 µM; in experiment [8], 40.8 µM; in [9] it was 34.5 µM; in experiment [10], 44.5 µM; in experiment [11] it was greater than 100 µM; in experiment [12], 31.6 µM.

Regarding `Cc1ccc(C(=O)NCc2ccccc2)cc1N=NN(C)C`, the TGI in experiment [2], in experiment [3], in experiment [13], in [4], in experiment [5] and in experiment [6] was greater than 100 µM throughout. The TGI in experiment [7], in [8], in [9], in experiment [10], in experiment [11] and in [12] was greater than 100 µM in each case.

Turning to `Cc1cc(C)nc(NC(P(=O)(O)O)P(=O)(O)O)n1`, the TGI in experiment [2], in [3], in experiment [13], in experiment [4], in experiment [5] and in experiment [6] was greater than 100 µM each time. The TGI in experiment [8], in experiment [9] and in experiment [11] was greater than 100 µM in each case.

As for `CC(NC(=O)c1c(O)[nH]c(=S)[nH]c1=O)c1ccc([N+](=O)[O-])cc1` (stereo unspecified), the TGI in experiment [2], in experiment [3], in [13], in experiment [4], in [5] and in [6] was greater than 100 µM in each case. The TGI in experiment [7], in experiment [8], in experiment [9], in experiment [10], in [11] and in experiment [12] was greater than 100 µM each time.

On to `COc1ccc(CNc2nc(NC3CCCCC3)nc(NC3CCCCC3)n2)cc1`, for which the TGI was greater than 100 µM in experiment [2]; greater than 100 µM in experiment [3]; 20.9 µM in experiment [13]; greater than 100 µM in experiment [4]; greater than 100 µM in experiment [5]; 61.6 µM in experiment [6]. The TGI in experiment [7] was greater than 100 µM; in [8] it was 4.44 µM; in experiment [9], greater than 100 µM; in experiment [10], greater than 100 µM; in [11], greater than 100 µM; in [12], 84.7 µM.

`CCOC(=O)c1ccc(-c2ccc(Cl)cc2)[nH]1`: the TGI in experiment [2], in [3], in experiment [4], in experiment [6], in experiment [7] and in [9] was greater than 10 µM throughout. For the same compound, the TGI in experiment [10], in experiment [11] and in experiment [12] was greater than 10 µM each time.

Regarding `O=C(NCCN1CCOCC1)c1ccc(I)cc1`, the TGI in [1], in experiment [2], in [3], in [6], in experiment [7] and in experiment [8] was greater than 100 µM in each case. The TGI in experiment [9], in experiment [10], in experiment [11] and in experiment [12] was greater than 100 µM each time.

`COc1cc(Nc2nc3cc(C(F)(F)F)ccc3nc2C(=O)O)cc(OC)c1OC`: the TGI in experiment [1], in experiment [2], in experiment [3], in experiment [13], in [4] and in experiment [5] was greater than 100 µM in each case. Moreover, the TGI in experiment [6], in experiment [8], in experiment [9], in experiment [10], in [11] and in [12] was greater than 100 µM in each case.

Take `CCCCC1Cc2cc(O)ccc2-c2nc3cc(O)ccc3n21` (stereo unspecified) (tested in a mixture with another compound): the TGI in [2] was 38.6 µM; in experiment [3] it was 41.6 µM; in experiment [13] it was 29.7 µM; in [4], greater than 100 µM; in [5], 30.2 µM; in experiment [6] it was 28.9 µM. In addition, the TGI in experiment [7] was determined as 41.3 µM; in [8], 30.9 µM; in experiment [9] it was 34.8 µM; in [10] it was 36 µM; in [11], 26.3 µM; in experiment [12], 27.5 µM.

As for `NC1(CCNC(=O)c2ccccc2)CCN(C(=O)c2ccccc2)CC1`, the TGI in [2], in [3], in [13], in experiment [4], in experiment [6] and in experiment [7] was greater than 100 µM throughout. The TGI in experiment [9], in experiment [10], in experiment [11] and in experiment [12] was greater than 100 µM each time.

Consider `O=C1CC(=O)NC(=NN2C(=O)/C(=C/c3ccc(Cl)c(Cl)c3)N=C2c2ccccc2)N1`, for which the TGI was 62.9 µM in [1]; greater than 100 µM in [2]; 49.2 µM in experiment [3]; 34.1 µM in [13]; greater than 100 µM in [4]; 79.6 µM in [5]. Also, the TGI in experiment [6] is greater than 100 µM; in experiment [7], 32.5 µM; in experiment [9], greater than 100 µM; in experiment [10], 34.8 µM; in [12], 90.4 µM.

Take `COCn1cnc2c(=O)nc(SC)n(-c3ccccc3)c21`: the TGI in experiment [1], in experiment [2], in [3], in experiment [13], in experiment [4] and in experiment [5] was greater than 100 µM each time. Moreover, the TGI in [6], in experiment [7], in [8], in [9], in experiment [10] and in [11] was greater than 100 µM throughout.

Regarding `CC1CC(Nc2ccc(Br)cc2)N(C(=O)c2ccc(Br)cc2)O1` (stereo unspecified), the TGI in experiment [2], in [3], in [13], in experiment [4], in experiment [5] and in experiment [6] was greater than 10 µM each time. Also, the TGI in [7], in experiment [9], in experiment [10] and in experiment [11] was greater than 10 µM throughout.

For the compound `CC(=O)OCC1OC(n2c(C)c(N=Nc3ccc(Cl)cc3)c(C)c(C#N)c2=S)C(OC(C)=O)C(OC(C)=O)C1OC(C)=O` (stereo unspecified), the TGI in experiment [2] is greater than 100 µM; in experiment [3], 52.3 µM; in experiment [13], greater than 100 µM; in experiment [4], greater than 100 µM; in experiment [5], 51.7 µM; in [6] it was greater than 100 µM. Also, the TGI is greater than 100 µM in [7]; greater than 100 µM in experiment [8]; greater than 100 µM in experiment [9]; greater than 100 µM in experiment [10]; greater than 100 µM in experiment [11]; 98 µM in experiment [12].

Turning to `COc1ccc(C2(CC(C)C)CCN(S(=O)(=O)c3ccc(C)cc3)C2)cc1OC` (stereo unspecified), the TGI in experiment [2], in experiment [3], in experiment [13], in experiment [4], in experiment [5] and in [6] was greater than 100 µM in each case. Also, the TGI is 76.5 µM in [7]; 74.3 µM in experiment [8]; greater than 100 µM in experiment [9]; greater than 100 µM in experiment [10]; greater than 100 µM in experiment [11]; greater than 100 µM in experiment [12].

As for `O=c1[nH]c2nc3ccccc3c(=O)n2/c1=C/c1cccs1`, the TGI in experiment [2], in experiment [3], in [13], in experiment [4], in experiment [5] and in experiment [6] was greater than 100 µM each time. Also, the TGI in experiment [7], in experiment [8], in [9], in experiment [10], in experiment [11] and in experiment [12] was greater than 100 µM in each case.

For `Cc1[nH]n(-c2nc(O)c(-c3ccccc3)c(=O)[nH]2)c(=O)c1CCO`, the TGI in experiment [1], in experiment [2], in experiment [3], in experiment [13], in [4] and in experiment [6] was greater than 100 µM each time. For the same compound, the TGI in experiment [7], in experiment [9], in experiment [10], in experiment [11] and in experiment [12] was greater than 100 µM in each case.

For `Cn1nnnc1SC(F)(F)c1nc2ccccc2o1`, the TGI in experiment [1], in experiment [2], in experiment [3], in experiment [13], in experiment [4] and in experiment [5] was greater than 100 µM each time. Besides, the TGI in experiment [6], in [7], in experiment [9], in experiment [10] and in [12] was greater than 100 µM in each case.

As to `C=C1CC[C@H]2C(=O)OC(c3ccoc3)C[C@]2(C)C/C=C\C=C/1C(=O)OC` (stereo partly specified), the TGI in experiment [1], in experiment [2], in experiment [3], in [13], in experiment [5] and in experiment [6] was greater than 25 µM throughout. For the same compound, the TGI in experiment [7], in experiment [8], in experiment [9], in [10], in experiment [11] and in [12] was greater than 25 µM throughout.
